{"source": "patent US6136852A", "about": "“3,4-disubstituted phenylethanolaminotetralincarboxylic acid derivatives” (Kissei Pharmaceutical Co., Ltd., priority 1996, dated 2000)", "key": {"β2 -adrenergic receptor": {"molecular_target": "T1, β2 -adrenergic receptor (Rattus norvegicus, UniProt P10608)", "T1 construct": "The uteri of pregnant SD rats (pregnancy day 21) were isolated; from tissue; host or cells: longitudinal uterine muscle strips of pregnant SD rats (day 21)", "T1 sequence (P10608 whole entry)": "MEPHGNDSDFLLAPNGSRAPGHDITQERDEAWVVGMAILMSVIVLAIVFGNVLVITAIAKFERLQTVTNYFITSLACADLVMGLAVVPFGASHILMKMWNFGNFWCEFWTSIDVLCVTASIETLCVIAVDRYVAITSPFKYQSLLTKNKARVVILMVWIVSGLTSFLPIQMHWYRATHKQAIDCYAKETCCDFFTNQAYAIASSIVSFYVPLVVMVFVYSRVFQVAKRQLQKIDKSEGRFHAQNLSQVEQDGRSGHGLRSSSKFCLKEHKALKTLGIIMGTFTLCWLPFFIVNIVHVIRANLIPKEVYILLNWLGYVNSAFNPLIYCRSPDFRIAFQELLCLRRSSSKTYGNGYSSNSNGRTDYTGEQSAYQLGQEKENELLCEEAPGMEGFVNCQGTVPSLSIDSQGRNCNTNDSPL", "assay": "Action of drugs on the spontaneous contractions of isolated pregnant rat myometrium (β2-adrenergic receptor stimulating activity)", "format": "cell-based", "settings": "isolated pregnant SD rat uterus (pregnancy day 21), Magnus method; read-out: EC50 value (activity to relax 50% of the spontaneous contractions of rat myometrium)", "method": "Thus, the compounds of the present invention have markedly potent β2 -adrenergic receptor stimulating effect and therefore are remarkably useful as β2 -adrenergic receptor stimulating agents.\nAction of Drugs on the Spontaneous Contractions of Isolated Pregnant Rat Myometrium\nThe uteri of pregnant SD rats (pregnancy day 21) were isolated and longitudinal uterine muscle strips (about 15 mm in length and about 5 mm in width) free from the basal plate were prepared. The experiment was conducted according to the Magnus method. The sample with a tension of 1 g was exposed to Locke-Ringer solution maintained at 37° C. and gassed with a mixture of 95% of oxygen and 5% of carbon dioxide. The spontaneous contractions of the myometrium were induced isometrically via a pressure transducer and recorded on a rectigram. The drug efficacy was evaluated as 50% inhibitory drug concentration (i.e., EC50 value) by comparing the total degree of uterine contraction during 5 minutes before the addition of the drug with the total degree of uterine contraction during 5 minutes after the addition of the drug."}, "β1 -adrenergic receptor": {"tested_on": "β1 -adrenergic receptor", "assay": "Action of drugs on the atrial contractions of isolated rat atrium (β1-adrenergic receptor stimulating activity)", "format": "cell-based", "settings": "isolated SD male rat atrium, Magnus method", "method": "Thus, the compounds of the present invention have markedly weak β1 -adrenergic receptor stimulating effect in comparison with the aforementioned β2 -adrenergic receptor stimulating effect.\nAction of Drugs on the Atrial Contractions of Isolated Atrium\nThe atria of SD male rats (350 to 400 g in body weight) were isolated and the experiment was conducted according to the Magnus method. The sample with a tension of 1 g was exposed to Krebs-Henseleit solution maintained at 37° C. and gassed with a mixture of 95% of oxygen and 5% of carbon dioxide. The atrial contraction was induced isometrically via a pressure transducer and recorded on a rectigram. After addition of the drug, its efficacy was evaluated as drug concentration that increased 20 beats per minute of heart rate (i.e., EC20 value)."}, "female ICR mice": {"tested_on": "female ICR mice", "assay": "Acute toxicity test", "format": "in vivo", "settings": "intravenous, 30 mg/kg in saline", "method": "To 3 female ICR mice of 4 weeks age was administered intravenously ethyl 2-[(2S)-2-[[(2RS)-2-hydroxy-2-(4-hydroxy-3-hydroxymethylphenyl)ethyl]amino]-1,2,3,4-tetrahydronaphthalen-7-yloxy]acetate dissolved in saline at dose of 30 mg/kg."}}, "data": [{"molecule": "CCOC(=O)COc1ccc2c(c1)C[C@@H](NCC(O)c1ccc(O)c(CO)c1)CC2", "note": "(mixture of isomers) [Compound 4, Ethyl 2-[(2S)-2-[[(2RS)-2-hydroxy-2-(4-hydroxy-3-hydroxymethylphenyl)ethyl]amino]-1,2,3,4-tetrahydronaphthalen-7-yloxy]acetate]", "values": [{"measurement": "EC50", "setting": "β2 -adrenergic receptor", "result": 1.1, "unit": "nM"}, {"measurement": "EC20 value (concentration that increases 20 beats per minute of rat heart rate)", "setting": "β1 -adrenergic receptor", "result": "1.1×10^-6 mol concentration"}, {"measurement": "death of animals during 24 hours after the administration", "setting": "female ICR mice", "result": "No death of animals was observed"}]}]}
